Reference: patent US20050113319A1, “11-Deoxy-6,9-ether erythromycin compounds” (priority 2003, published 2005)
≈ marks a conversion by molar mass, not a printed value. Like-named read-outs stand apart in the source and are kept apart here.

Tests used:
motilin receptor [1] = biological target: T1, motilin receptor (Homo sapiens, UniProt O43193); assay: Motilin agonist activity (activation of the motilin receptor); type: cell-based
Procedure: Compounds of this invention were tested for motilin agonist activity, following the procedure of Carreras et al., Anal. Biochem., 300, 146-151 (2002), the disclosure of which is incorporated herein by reference.

[2] = tested on: Streptococcus pneumoniae ATCC 6301; assay: In vitro antibacterial activity; type: cell-based; conditions: ATCC6301
Procedure: Compounds of this invention were tested for in vitro activity against Streptococcus pneumoniae ATCC 6301, an erythromycin-sensitive strain, using methods known in the microbiological art.

motilin receptor [3] = biological target: T1, motilin receptor; assay: Motilin receptor desensitization, cell-based assay; conditions: for Activity retained following exposure, 1 μM Compound: motilin receptor activity retained after exposure to 1 μM test compound; for Activity retained following exposure, 10 μM Compound: motilin receptor activity retained after exposure to 10 μM test compound
Procedure: Compounds were tested for motilin receptor desensitization using the cell-based assay described in Carreras et al., U.S. 2002/0192709 A1 (2002), “Methods for Evaluating Therapeutic Efficacy,” incorporated herein by reference. Briefly, the test measures the extent of motilin receptor activity retained after exposure to varying amounts (1 and 10 μM) of test compound.

T1 sequence (O43193 whole entry): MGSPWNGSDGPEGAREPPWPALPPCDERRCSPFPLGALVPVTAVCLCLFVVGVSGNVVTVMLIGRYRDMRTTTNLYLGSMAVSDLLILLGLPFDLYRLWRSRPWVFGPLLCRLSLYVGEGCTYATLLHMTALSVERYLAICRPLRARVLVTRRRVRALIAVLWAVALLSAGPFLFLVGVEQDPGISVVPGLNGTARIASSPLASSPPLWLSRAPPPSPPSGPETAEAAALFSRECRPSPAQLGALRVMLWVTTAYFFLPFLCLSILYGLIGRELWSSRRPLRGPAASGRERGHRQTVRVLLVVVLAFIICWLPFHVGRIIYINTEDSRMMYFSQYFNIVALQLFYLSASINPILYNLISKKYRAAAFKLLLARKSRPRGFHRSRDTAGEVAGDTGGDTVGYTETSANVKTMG

Structure (SMILES)	EC50 (motilin receptor [1])	MIC ([2]; Streptococcus pneumoniae)	Activity retained following exposure, 1 μM Compound (motilin receptor [3])	Activity retained following exposure, 10 μM Compound (motilin receptor [3])	MIC ([2]; Streptococcus pneumoniae ATCC 6301, erythromycin-sensitive strain, read-out: MIC)
CC[C@H]1OC(=O)[C@H](C)[C@@H](O[C@H]2C[C@@](C)(OC)C[C@H](C)O2)[C@H](C)[C@@H](O[C@@H]2O[C@H](C)C[C@H](N(C)C)[C@H]2O)[C@@]2(C)C[C@@H](C)[C@H](O2)[C@H](C)C[C@H]1C [Compound IVa]	42 nM	25 µg/mL (≈ 37.3 µM)	24 % of original	7 % of original	–
CC[C@H]1OC(=O)[C@H](C)[C@@H](O[C@H]2C[C@@](C)(OC)[C@@H](O)[C@H](C)O2)[C@H](C)[C@@H](O[C@@H]2O[C@H](C)C[C@H](N(C)C)[C@H]2O)[C@@]2(C)C[C@@H](C)[C@H](O2)[C@H](C)C[C@H]1C [Compound IVb]	230 nM	100 µg/mL (≈ 146 µM)	57 % of original	49 % of original	–
CC[C@H]1OC(=O)[C@H](C)[C@@H](O[C@H]2C[C@@](C)(OC)C[C@H](C)O2)[C@H](C)[C@@H](O[C@@H]2O[C@H](C)C[C@H](N(C)C(C)C)[C@H]2O)[C@@]2(C)C[C@@H](C)[C@H](O2)[C@H](C)C[C@H]1C [Compound IVc]	13 nM	50 µg/mL (≈ 71.6 µM)	9 % of original	5 % of original	–
CC[C@H]1OC(=O)[C@H](C)[C@@H](O[C@H]2C[C@@](C)(OC)C[C@H](C)O2)[C@H](C)[C@@H](O[C@@H]2O[C@H](C)C[C@H](N(C)CCF)[C@H]2O)[C@@]2(C)C[C@@H](C)[C@H](O2)[C@H](C)C[C@H]1C [Compound IVd]	45 nM	–	7 % of original	5 % of original	> 100 µg/mL
